{
  "source": "patent US12318400B2",
  "about": "“Brown and beige adipocyte activating agent containing D-allulose as active ingredient” (NATIONAL UNIVERSITY CORPORATION KAGAWA UNIVERSITY, priority 2018, dated 2025)",
  "key": {"[1]": {"test_system": "brown adipocytes (BAT)", "test": "Example 1: high fat diet mice given 2% D-allulose drinking water, body weight, blood glucose and brown adipocytes", "assay_type": "in vivo", "protocol": "(§1) The influence of administration of D-allulose, one of rare sugars, on brown adipocytes (BAT: abbreviation of brown adipose tissue) was studied. The experiment was performed using 6-week mice and the mice were divided into 3 groups, each group having 5 mice. The treatment was made as follows for 8 weeks. • (1) A group of normal diet and drinking of water (Normal food) • (2) A group of high fat diet and drinking of water (HFD) • (3) A group of high fat diet and drinking of water containing 2% D-allulose (D-allulose) (HFD+2% D-allulose) 2. Evaluation item: • (1) Transition of Body Weight • Transition of Blood Glucose • (2) Size and weight of brown adipocytes under the scapula • (3) Pathological evaluation of the morphological change in brown adipocytes • (4) Evaluation of UCP-1, PPAR-α, and PGC-1α expression levels as activation of brown adipocytes 3."}, "[2]": {"test_system": "UCP-1, PPAR-α, PGC-1α", "test": "Example 1: expression levels of UCP-1, PPAR-α and PGC-1α as activation of brown adipocytes", "assay_type": "in vivo, mice", "details": "HFD+2% D-allulose vs HFD", "protocol": "as §1, with “In Examples of the present invention, activation of brown adipocytes was evaluated by the expression level of UCP-1, PPAR-α, or PGC-1α. The influence” for “The influence”"}, "[3]": {"test_system": "type 2 diabetic patients", "test": "Example 2: human clinical test of D-allulose (D-psicose) in type 2 diabetic patients", "assay_type": "in vivo", "from_the_text": "Type 2 diabetic patients unable to get sufficient effects by any of the following treatments (HbA1c: 6.5% or more) […] • 1) Only diet therapy and exercise therapy • 2) Drug therapy in addition to diet therapy and exercise therapy <Exclusion Standards> • 1) Patients having a contraindication to D-allulose (D-psicose) administration • 2) Patients who are participating in another clinical trial • 3) Pregnant women, parturients, lactating women, or women who may be pregnant • 4) Patients having 8% or more HbA1c and poor in blood glucose control • 5) Patients recognized to have severe renal dysfunction (serum creatinine level: 1.5 mg/dl or more) • 6) Patients having another severe complication <Experimenting Method> D-allulose (D-psicose) powders: provided as sticks each containing 5 g/pack (product of Rare Sweet) It was orally administered with 5 g per dose three times a day. Twelve type 2 diabetic patients (4 male cases, 8 female cases) who could be observed for 3 months were compared for general findings and blood test before administration and 12 weeks after administration (Wilcoxon signed rank test)."}, "[4]": {"test_system": "brown adipose tissue (BAT)", "assay_type": "in vivo, mice", "protocol": "FIG. 10 is a drawing for describing the procedure (protocol) of the experiment of Example 3. Mice are divided into two groups, with one group having five mice. Eight-week-old mice of each group are loaded with a high fat diet (HFD). From four weeks after loading with HFD, one of the groups is loaded with HFD continuously. To the other group, D-allulose (0.2 mg/body weight g/day), in addition to HFD, is administered to the stomach by a sonde. Until week 10, the body weight, food intake, water intake, and blood glucose level are monitored. Glucose was intraperitoneally administered and the blood glucose level after 0, 15, 30, 60, 90, and 120 minutes were measured."}, "[5]": {"test_system": "beige adipocytes", "test": "Example 3: marker expression in beige adipocytes of HFD-loaded mice after D-allulose", "assay_type": "in vivo", "protocol": "(§2) (Purpose) The influence of D-allulose administration to mice on their brown adipose tissue is confirmed. In addition, differentiation of beige adipocytes is studied with a change in UCP-1 expression or the like as a marker. Mice are divided into two groups, each group having five mice. Eight-week-old mice of each group are loaded with a high fat diet (HFD). From four weeks after loading with HFD, one of the groups is loaded with HFD continuously. To the other group, D-allulose (0.2 mg/body weight g/day) together with HFD is administered to the stomach by a sonde. Until week 10, the body weight, food intake, water intake, and blood glucose level are monitored. The administration of D-allulose has a possibility of contributing a weight loss by inducing beige adipocytes and activating brown adipocytes. • 9) With regard to the details of the induction of beige adipocytes and the activation of brown adipocytes caused by D-allulose administration, expression of UCP-1 and Prdm16 which are genes involved in thermogenesis, Pgcl-α and Tfam which are genes reflecting the mitochondrial function of organelle involved in thermogenesis, and PPARγ which is a gene related to the differentiation of fat are investigated and the results are shown in FIG. 19."}, "[6]": {"test_system": "brown adipocytes", "test": "Example 3: marker expression in brown adipocytes of HFD-loaded mice after D-allulose", "assay_type": "in vivo", "protocol": "as §2"}, "[7]": {"test_system": "cell line derived from a single clone from BAT of the adult supraclavicular fossa", "test": "Differentiation induction into beige adipocytes in cells (BAT-protocol, WAT-protocol) with addition of D-allulose", "assay_type": "cell-based", "from_the_text": "FIG. 21 is a drawing for describing, with regard to an experiment using cells (a single-clone-derived cell strain is established from BAT of adult supraclavicular fossa portion and is used as a research model of differentiation induction into beige adipocytes), two protocols, that is, BAT-protocol and WAT-protocol, for inducing beige adipocytes. FIG. 22 is a drawing for describing, in an experiment using cells, protocols including two protocols, that is, BAT-protocol and WAT-protocol, for inducing beige adipocytes and further including addition of D-allulose. […] They are presumed to participate in the activation of brown adipocytes. • 10) FIG. 20 is a drawing for describing two protocols for inducing beige adipocytes, that is, BAT-protocol and WAT-protocol used in an experiment using cells (a cell line derived from a single clone from BAT of the adult supraclavicular fossa is established and used as a research model of the differentiation induction into beige adipocytes). FIG. 21 is a drawing for describing a protocol including two protocols for inducing beige adipocytes, that is, BAT-protocol and WAT-protocol and further including addition of D-allulose in an experiment using cells."}, "[8]": {"details": "6-week mice, HFD+2% D-allulose water, 8 weeks, vs HFD group"}, "[9]": {"details": "after administration vs before administration"}, "[10]": {"details": "before vs 12 weeks after administration, 5 g three times a day"}, "[11]": {"details": "HFD mice, D-allulose administered group"}, "[12]": {"details": "classical brown adipose tissue, HFD-loaded mice"}, "[13]": {"details": "presence or absence of D-allulose"}},
  "note": "“Also recorded” adds a separate entry of the source.",
  "data": [
    {"compound": "O=C(CO)[C@H](O)[C@H](O)[C@H](O)CO", "note": "[D-allulose]", "values": [
      {"measurement": "Transition of blood glucose", "setting": "[1]; [8]", "value": "a decrease in blood glucose was recognized"},
      {"measurement": "Transition of body weight", "setting": "[1]; [8]", "value": "a decrease in body weight was observed"},
      {"measurement": "Size and weight of brown adipocytes under the scapula", "setting": "[1]; HFD+2% D-allulose, 8 weeks, vs HFD group", "value": "an increase in brown adipocytes was recognized"},
      {"measurement": "Pathological evaluation of the morphological change in brown adipocytes", "setting": "[1]; HFD+2% D-allulose, tissue staining, vs HFD group (steatosis)", "value": "improved to have almost a normal state; also recorded: almost morphologically similar to that of the normal diet intake group"},
      {"measurement": "PGC-1α expression level", "setting": "[2]", "value": "induced more strongly"},
      {"measurement": "PPAR-α expression level", "setting": "[2]", "value": "induced more strongly"},
      {"measurement": "UCP-1 expression level", "setting": "[2]", "value": "induced UCP-1 further"},
      {"measurement": "TNF-α level", "setting": "[3]; 2 months after administration", "value": "significant decrease"},
      {"measurement": "Body weight decrease on average", "setting": "[3]; 5 g three times a day orally, 3 months after administration, 12 patients", "value": 1, "unit": "kg"},
      {"measurement": "Body weight", "setting": "[3]; 5 g three times a day orally, after 3 months", "value": "significant decrease in body weight"},
      {"measurement": "MCP-1 level", "setting": "[3]; [9]", "value": "significantly decreased"},
      {"measurement": "TNF-α level", "setting": "[3]; [9]", "value": "significantly decreased"},
      {"measurement": "GA", "setting": "[3]; [10]", "value": "No significant difference"},
      {"measurement": "HbA1c", "setting": "[3]; [10]", "value": "No significant difference"},
      {"measurement": "adiponectin", "setting": "[3]; [10]", "value": "No significant difference"},
      {"measurement": "leptin", "setting": "[3]; [10]", "value": "No significant difference"},
      {"measurement": "Increasing degree of body weight", "setting": "[4]; HFD mice, D-allulose 0.2 mg/body weight g/day by sonde, from week 2 after administration is started", "value": "lowers significantly"},
      {"measurement": "Fasting blood glucose level", "setting": "[4]; HFD mice, D-allulose 0.2 mg/body weight g/day, from week 3 after administration is started", "value": "a reduction in fasting blood glucose level is observed"},
      {"measurement": "Area of brown adipocytes (BAT)", "setting": "[4]; [11]", "value": "increase"},
      {"measurement": "Weight of brown adipocytes (BAT)", "setting": "[4]; [11]", "value": "increase"},
      {"measurement": "Blood glucose level in the glucose loading test", "setting": "[4]; after 10 weeks, glucose intraperitoneally, after 90 and 120 minutes, vs control group", "value": "significantly decreases"},
      {"measurement": "Food intake", "setting": "[4]; mouse, in vivo", "value": "no significant change"},
      {"measurement": "Water intake", "setting": "[4]; mouse, in vivo", "value": "no significant change"},
      {"measurement": "UCP-1 mRNA expression", "setting": "[5]; HFD-loaded mice", "value": "significantly increased"},
      {"measurement": "UCP-1 protein expression", "setting": "[5]; HFD-loaded mice", "value": "significantly increased"},
      {"measurement": "PPARγ gene expression", "setting": "[5]; gene panel", "value": "increased"},
      {"measurement": "Pgcl-α gene expression", "setting": "[5]; gene panel", "value": "increased"},
      {"measurement": "Prdm16 gene expression", "setting": "[5]; gene panel", "value": "increased"},
      {"measurement": "Tfam gene expression", "setting": "[5]; gene panel", "value": "increased"},
      {"measurement": "UCP-1 gene expression", "setting": "[5]; gene panel", "value": "increased"},
      {"measurement": "Prdm16 gene expression", "setting": "[6]; brown adipocytes, gene panel", "value": "increase"},
      {"measurement": "Tfam gene expression", "setting": "[6]; brown adipocytes, gene panel", "value": "increase"},
      {"measurement": "UCP-1 gene expression", "setting": "[6]; brown adipocytes, gene panel", "value": "increase"},
      {"measurement": "UCP-1 mRNA expression", "setting": "[6]; [12]", "value": "increased"},
      {"measurement": "UCP-1 protein expression", "setting": "[6]; [12]", "value": "increased"},
      {"measurement": "Expression of all the markers", "setting": "[7]; D-allulose administered group, markers UCP-1, Prdm16, Pgc-1α, tfam, cox8b, PPARγ", "value": "significantly increased"},
      {"measurement": "PPARγ expression", "setting": "[7]; WAT-protocol", "value": "enhances the expression"},
      {"measurement": "Pgc-1α expression", "setting": "[7]; WAT-protocol", "value": "enhances the expression"},
      {"measurement": "Prdm16 expression", "setting": "[7]; WAT-protocol", "value": "enhances the expression"},
      {"measurement": "UCP-1 protein expression", "setting": "[7]; WAT-protocol", "value": "slightly enhances"},
      {"measurement": "oil-red-O (fat staining)", "setting": "[7]; addition of D-allulose to the differentiation inducing protocol", "value": "promotes"},
      {"measurement": "PPARγ expression", "setting": "[7]; both differentiation protocols", "value": "enhances expression of PPARγ"},
      {"measurement": "PPARγ expression", "setting": "[7]; [13]", "value": "increased"},
      {"measurement": "UCP-1 expression", "setting": "[7]; [13]", "value": "increased"}
    ]}
  ]
}
